Structures can show the parent of a compound that is named as a salt.
Tested on: Con A-induced hepatitis model
Assay: Con A-induced hepatitis model: liver-infiltrating cells counted with FACS Calibur
Format: in vivo, Male BALB/c mice
Procedure: Male BALB/c mice, aged 8 to 12 weeks, were purchased from Charles River, Japan. Concanavalin A (referred to as “Con A,” hereinafter) was dissolved in phosphate-buffered saline (PBS). 0.2 ml of this solution was intravenously administered to the animals to deliver 40 mg/kg of Con A. KRP-203 suspended in distilled water was orally administered at a dose of 0.1 mg/10 g body weight 24 hours before the administration of Con A. The animals were sacrificed 24 hours after the administration of Con A and the serum transaminase activity was measured. Also, the liver was perfused with 30 mL 0.1% EDTA-PBS to collect liver infiltrate (Eur. J. Immunol., 17: 37, 1987). To avoid contamination with lymphocytes in the periphery blood, the first 2.5 ml of the collected 0.1% EDTA-PBS was discarded. The collected cells were stained with anti-CD4 antibody, anti-CD8 antibody, anti-CD3 antibody, anti-CD45/B220 antibody, anti-CD11b antibody, anti-Ly-49C antibody and were counted with FACS Calibur.

[1] = KRP-203 1 mg/kg oral 24 h before Con A 40 mg/kg i.v., 24 h after Con A

NC(CO)(CO)CCc1ccc(Sc2cccc(OCc3ccccc3)c2)cc1Cl [KRP-203, 2-amino-2-[4-(3-benzyloxyphenylthio)-2-chlorophenyl]ethyl-1,3-propanediol hydrochloride]
Number of cells that infiltrated the liver: B220^+ [1]: 2.06 ± 0.21 ×10^5
Number of cells that infiltrated the liver: CD3^+ NK− [1]: 2.29 ± 0.53 ×10^5
Number of cells that infiltrated the liver: CD4^+ [1]: 0.93 ± 0.33 ×10^5
Number of cells that infiltrated the liver: CD8^+ [1]: 2.53 ± 0.64 ×10^5
Number of cells that infiltrated the liver: CD11b^+ [1]: 8.47 ± 2.75 ×10^5
Number of cells that infiltrated the liver: NK^+ CD3− [1]: 0.40 ± 0.24 ×10^5
Number of cells that infiltrated the liver: Total cells [1]: 16.3 ± 3.5 ×10^5
Decrease of total number of infiltrated cells in the liver (group receiving KRP-203 (1 mg/kg) vs control): about 50%

— patent US8048928B2, “Therapeutic agent for treating liver disease containing 2-amino-1,3-propanediol derivative as active ingredient, and method for treating liver disease” (Kyorin Pharmaceutical Co., Ltd., priority 2005, dated 2011)
